From patent publication US11225474B2, “Crystalline salt forms of 3-(1,2,4-triazolo[4,3-a]pyridine-3-ylethynyl)-4-methyl-N-(4-((4-methylpiperazin-1-yl)methyl)-3-trifluoromethylphenyl)benzamide for medical application” (priority 2016, dated 2022)

Tests used:
[1] = Stability of polymorph modifications, suspending in acetone for 6 days; type: physicochemical
Method: Crystallinity of all samples obtained was studied using the method of X-ray powder diffraction (to study the crystallinity structure). Diffraction patterns were obtained at a temperature of 25° C. […] Survey step 0.02° 2θ, angle range 3-45° 2θ. Diffraction patterns obtained were studied in detail using X'Pert HighScore Plus software package.

in vivo [2] = test: in vivo; set-up: species or system C57BL/6 line mice; settings: mouse, plasma; mesylate polymorphous modification I 59 mg/kg (50 mg/kg as free base), single oral, C57BL/6 mice; read-out: Cmax
Method: FIGS. 52A-52B. […] The mean values were determined for each time point on the basis of the individual data obtained from three animals.
The results of the study are given in FIG. 52 and in Tables 14 and 15.

[3] = Acute toxicity, oral route, mice; settings: male, CD-1, mouse, in vivo, po, LD50, oral, male CD-1 mice
Description: (§1) For each drug dose study a group of six animals was used. The study included control groups with the same animal headcount, which received equivalent solvent doses of a 0.5% water solution of methylcellulose. The follow-up period was 28 days. Lab mouse survivability analysis allowed carrying out Bliss analysis and determining the lethal doses of the studied drugs.

CD-1 line mice males = test: Acute toxicity, oral route, mice; settings: for LD10 / LD90: oral, male CD-1 mice
Description: as §1

EPHA8 = EPHA8 (Homo sapiens, UniProt P29322); test: Human kinase panel at 100 nM; type: biochemical
Sequence of EPHA8 (P29322 28-1005): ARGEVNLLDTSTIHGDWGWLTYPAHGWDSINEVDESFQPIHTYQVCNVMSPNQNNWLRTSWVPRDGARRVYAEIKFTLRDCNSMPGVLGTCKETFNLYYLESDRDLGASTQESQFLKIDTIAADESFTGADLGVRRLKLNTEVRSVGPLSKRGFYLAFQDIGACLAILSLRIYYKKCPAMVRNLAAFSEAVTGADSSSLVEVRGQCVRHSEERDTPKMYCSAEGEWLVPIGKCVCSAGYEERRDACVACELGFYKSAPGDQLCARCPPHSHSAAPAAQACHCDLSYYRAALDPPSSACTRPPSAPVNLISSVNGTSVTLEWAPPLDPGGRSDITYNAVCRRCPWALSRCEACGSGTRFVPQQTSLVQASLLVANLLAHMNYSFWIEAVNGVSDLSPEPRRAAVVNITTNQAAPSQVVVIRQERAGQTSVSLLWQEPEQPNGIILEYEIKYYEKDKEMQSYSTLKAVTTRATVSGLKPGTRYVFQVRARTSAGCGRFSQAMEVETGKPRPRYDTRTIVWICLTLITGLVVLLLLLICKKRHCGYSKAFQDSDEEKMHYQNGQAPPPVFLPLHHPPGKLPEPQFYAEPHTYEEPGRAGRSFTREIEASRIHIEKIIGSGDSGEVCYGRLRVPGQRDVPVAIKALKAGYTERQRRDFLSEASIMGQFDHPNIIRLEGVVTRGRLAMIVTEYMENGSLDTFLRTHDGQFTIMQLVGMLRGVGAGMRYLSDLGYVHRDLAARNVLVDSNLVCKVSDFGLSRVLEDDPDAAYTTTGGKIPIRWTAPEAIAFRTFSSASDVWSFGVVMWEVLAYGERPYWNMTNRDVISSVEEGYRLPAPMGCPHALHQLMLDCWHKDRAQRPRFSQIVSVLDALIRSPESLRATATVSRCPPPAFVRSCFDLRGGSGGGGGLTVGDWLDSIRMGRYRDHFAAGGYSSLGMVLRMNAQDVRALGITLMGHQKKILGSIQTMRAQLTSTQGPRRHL

FLT4/VEGFR3 = FLT4/VEGFR3 (Homo sapiens, UniProt P35916); test: Human kinase panel at 100 nM; type: biochemical
FYN = FYN (Homo sapiens, UniProt P06241); test: Human kinase panel at 100 nM; type: biochemical
Sequence of FYN (P06241 whole entry): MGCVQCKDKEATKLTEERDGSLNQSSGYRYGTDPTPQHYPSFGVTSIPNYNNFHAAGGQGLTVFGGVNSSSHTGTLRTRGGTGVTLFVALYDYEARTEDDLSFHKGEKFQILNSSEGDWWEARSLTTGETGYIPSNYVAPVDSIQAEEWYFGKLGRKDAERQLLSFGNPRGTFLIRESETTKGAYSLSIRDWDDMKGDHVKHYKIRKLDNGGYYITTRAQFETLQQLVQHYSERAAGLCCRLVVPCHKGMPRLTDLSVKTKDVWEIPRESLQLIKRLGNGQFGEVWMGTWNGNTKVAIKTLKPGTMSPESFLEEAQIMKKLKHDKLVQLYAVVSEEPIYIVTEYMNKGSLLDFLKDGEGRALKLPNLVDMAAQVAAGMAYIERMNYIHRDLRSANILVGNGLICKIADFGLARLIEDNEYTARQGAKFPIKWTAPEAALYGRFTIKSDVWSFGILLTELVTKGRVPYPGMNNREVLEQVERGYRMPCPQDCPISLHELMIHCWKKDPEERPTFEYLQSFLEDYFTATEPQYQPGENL

HCK = HCK (Homo sapiens, UniProt P08631); test: Human kinase panel at 100 nM; type: biochemical
Sequence of HCK (P08631 whole entry): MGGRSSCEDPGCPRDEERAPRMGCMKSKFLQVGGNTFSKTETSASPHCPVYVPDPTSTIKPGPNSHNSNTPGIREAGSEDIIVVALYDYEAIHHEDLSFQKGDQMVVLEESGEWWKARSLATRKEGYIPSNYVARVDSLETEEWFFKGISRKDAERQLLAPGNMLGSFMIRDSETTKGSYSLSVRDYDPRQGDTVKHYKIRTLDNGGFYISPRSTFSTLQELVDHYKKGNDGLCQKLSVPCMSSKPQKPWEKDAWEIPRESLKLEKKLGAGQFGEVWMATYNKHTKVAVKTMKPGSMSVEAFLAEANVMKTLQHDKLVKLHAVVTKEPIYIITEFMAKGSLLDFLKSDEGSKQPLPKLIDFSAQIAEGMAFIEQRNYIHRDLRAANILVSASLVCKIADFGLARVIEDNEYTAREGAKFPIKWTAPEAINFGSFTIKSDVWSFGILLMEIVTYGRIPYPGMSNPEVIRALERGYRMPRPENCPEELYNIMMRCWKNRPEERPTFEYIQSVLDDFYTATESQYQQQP

P38a/MAPK14 = P38a/MAPK14 (Homo sapiens, UniProt Q16539); test: Human kinase panel at 100 nM; type: biochemical
Sequence of P38a/MAPK14 (Q16539 whole entry): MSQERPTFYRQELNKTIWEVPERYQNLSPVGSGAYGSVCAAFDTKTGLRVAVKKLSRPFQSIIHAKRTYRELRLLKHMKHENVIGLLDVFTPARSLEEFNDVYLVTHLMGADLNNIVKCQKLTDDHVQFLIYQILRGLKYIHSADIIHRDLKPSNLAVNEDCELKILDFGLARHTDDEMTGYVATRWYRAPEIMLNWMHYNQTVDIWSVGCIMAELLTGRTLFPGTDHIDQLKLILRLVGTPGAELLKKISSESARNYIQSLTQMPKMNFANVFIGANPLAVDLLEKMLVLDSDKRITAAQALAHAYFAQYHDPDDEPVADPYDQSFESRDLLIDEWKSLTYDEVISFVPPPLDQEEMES

RIPK3 = RIPK3 (Homo sapiens, UniProt Q9Y572); test: Human kinase panel at 100 nM; type: biochemical
Sequence of RIPK3 (Q9Y572 whole entry): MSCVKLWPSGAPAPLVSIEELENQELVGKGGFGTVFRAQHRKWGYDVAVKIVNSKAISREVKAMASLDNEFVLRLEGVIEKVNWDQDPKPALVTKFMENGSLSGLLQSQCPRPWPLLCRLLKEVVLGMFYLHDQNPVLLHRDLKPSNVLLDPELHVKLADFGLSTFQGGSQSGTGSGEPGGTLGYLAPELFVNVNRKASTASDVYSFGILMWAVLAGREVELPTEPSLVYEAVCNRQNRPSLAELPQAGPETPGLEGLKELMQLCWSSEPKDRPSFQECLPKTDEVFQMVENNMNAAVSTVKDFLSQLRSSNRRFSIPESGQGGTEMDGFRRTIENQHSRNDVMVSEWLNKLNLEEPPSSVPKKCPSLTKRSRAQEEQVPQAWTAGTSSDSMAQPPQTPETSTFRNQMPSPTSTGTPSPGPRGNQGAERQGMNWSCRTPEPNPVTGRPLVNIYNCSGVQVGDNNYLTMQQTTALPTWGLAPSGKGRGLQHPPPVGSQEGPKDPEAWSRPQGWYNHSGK

KCL-22 = test: Cytotoxicity, Ph+ CML model cell line; type: cell-based; settings: Homo sapiens, read-out: IC50 (toxicity)
BV-173 = test: Cytotoxicity, Ph+ CML model cell line; type: cell-based; settings: Homo sapiens, read-out: IC50 (toxicity)
Tom-1 = test: Cytotoxicity, Ph+ ALL model cell line; type: cell-based; settings: Homo sapiens, read-out: IC50 (toxicity)
SKOV-3 = test: Cytotoxicity, ovarian cancer line; type: cell-based, human
K562 line cells = test: Xenograft chronic leukemia model; type: in vivo, thymus-deprived mice; settings: oral, 14 days, follow-up 240 days
Description: The therapy was started after the size of the tumor had reached 500 mm^3, therapy duration was 14 days, the follow-up period was 240 days.

[4] = test system: marrow cells obtained from C57BL/6N line mice with induced acute leukemia; test: Acute leukemia mouse model; type: in vivo; settings: oral, 40 mg/kg (34 mg/kg as free base), 2 weeks
Method: To induce the pathology, marrow cells obtained from C57BL/6N line mice with induced acute leukemia were used. Cells were injected to the tail vein of an animal following administration of a sub lethal dose of radiation. Therapy was initiated on the 5th day after pathology induction and continued for 2 weeks.

in vivo [5] = type: in vivo; settings: mice
CYP3A4 = CYP3A4 (Homo sapiens, UniProt P08684); test: Metabolism study using cytochrome enzyme drugs; type: in vitro ADME
Sequence of CYP3A4 (P08684 whole entry): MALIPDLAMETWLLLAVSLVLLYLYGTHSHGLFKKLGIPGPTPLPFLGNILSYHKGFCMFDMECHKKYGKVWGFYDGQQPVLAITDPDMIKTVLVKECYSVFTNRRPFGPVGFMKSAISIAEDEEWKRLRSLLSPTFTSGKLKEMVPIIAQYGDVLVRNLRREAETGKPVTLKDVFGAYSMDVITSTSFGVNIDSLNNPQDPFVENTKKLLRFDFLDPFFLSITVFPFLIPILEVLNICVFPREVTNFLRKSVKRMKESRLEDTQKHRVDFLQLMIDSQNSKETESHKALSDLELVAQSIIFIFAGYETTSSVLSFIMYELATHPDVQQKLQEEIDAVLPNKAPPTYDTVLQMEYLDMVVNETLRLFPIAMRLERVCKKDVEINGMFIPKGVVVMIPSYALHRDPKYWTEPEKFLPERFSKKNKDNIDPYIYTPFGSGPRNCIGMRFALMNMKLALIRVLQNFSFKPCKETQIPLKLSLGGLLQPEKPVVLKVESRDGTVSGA

CYP2C9 = CYP2C9 (Homo sapiens, UniProt P11712); test: Metabolism study using cytochrome enzyme drugs; type: in vitro ADME; settings: 2C9
Sequence of CYP2C9 (P11712 whole entry): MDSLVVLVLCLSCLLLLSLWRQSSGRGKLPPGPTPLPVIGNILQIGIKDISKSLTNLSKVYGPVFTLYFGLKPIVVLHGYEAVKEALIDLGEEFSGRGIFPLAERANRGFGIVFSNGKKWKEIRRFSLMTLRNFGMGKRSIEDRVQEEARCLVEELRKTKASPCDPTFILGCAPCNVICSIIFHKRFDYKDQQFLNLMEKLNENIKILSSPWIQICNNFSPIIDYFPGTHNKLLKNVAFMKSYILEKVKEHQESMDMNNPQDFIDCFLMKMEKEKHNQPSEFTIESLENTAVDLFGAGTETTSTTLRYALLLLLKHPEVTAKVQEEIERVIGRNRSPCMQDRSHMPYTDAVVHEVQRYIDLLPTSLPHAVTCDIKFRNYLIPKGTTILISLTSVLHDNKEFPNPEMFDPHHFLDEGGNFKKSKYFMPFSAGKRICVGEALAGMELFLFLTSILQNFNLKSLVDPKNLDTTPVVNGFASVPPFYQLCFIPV

CYP2C19 = CYP2C19 (Homo sapiens, UniProt P33261); test: Metabolism study using cytochrome enzyme drugs; type: in vitro ADME; settings: 2C19
Sequence of CYP2C19 (P33261 whole entry): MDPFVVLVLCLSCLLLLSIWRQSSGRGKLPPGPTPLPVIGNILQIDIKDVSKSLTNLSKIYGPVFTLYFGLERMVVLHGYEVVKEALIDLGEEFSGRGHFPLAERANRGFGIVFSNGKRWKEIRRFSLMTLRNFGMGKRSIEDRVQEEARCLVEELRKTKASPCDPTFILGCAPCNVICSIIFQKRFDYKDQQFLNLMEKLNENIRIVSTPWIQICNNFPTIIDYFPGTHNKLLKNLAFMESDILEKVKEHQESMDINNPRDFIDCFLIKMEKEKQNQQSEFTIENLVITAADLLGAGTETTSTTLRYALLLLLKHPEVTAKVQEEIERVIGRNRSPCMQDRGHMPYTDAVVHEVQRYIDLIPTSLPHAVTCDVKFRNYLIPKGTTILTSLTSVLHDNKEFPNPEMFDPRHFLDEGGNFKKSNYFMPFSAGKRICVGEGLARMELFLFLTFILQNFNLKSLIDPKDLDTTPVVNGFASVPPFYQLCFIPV

CYP2D6 = CYP2D6 (Homo sapiens, UniProt P10635); test: Metabolism study using cytochrome enzyme drugs; type: in vitro ADME; settings: 2D6
Sequence of CYP2D6 (P10635 whole entry): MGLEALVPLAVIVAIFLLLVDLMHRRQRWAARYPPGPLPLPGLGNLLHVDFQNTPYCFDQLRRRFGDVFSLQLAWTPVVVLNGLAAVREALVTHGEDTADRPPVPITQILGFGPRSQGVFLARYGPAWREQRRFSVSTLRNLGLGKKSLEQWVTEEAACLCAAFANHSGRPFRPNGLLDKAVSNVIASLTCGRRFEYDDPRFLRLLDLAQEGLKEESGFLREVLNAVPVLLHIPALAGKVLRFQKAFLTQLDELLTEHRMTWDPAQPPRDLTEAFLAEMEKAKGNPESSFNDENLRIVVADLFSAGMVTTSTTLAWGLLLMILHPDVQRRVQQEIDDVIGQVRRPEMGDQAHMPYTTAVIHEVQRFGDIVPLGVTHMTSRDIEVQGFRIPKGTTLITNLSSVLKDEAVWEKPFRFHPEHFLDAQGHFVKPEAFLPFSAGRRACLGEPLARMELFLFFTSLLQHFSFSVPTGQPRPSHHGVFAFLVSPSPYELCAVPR

mice = test: Acute toxicity studies, mice; type: in vivo
Gene toxicity: Ames test = type: cell-based; settings: all concentrations tested
HCT116 line cells = settings: oral, 25 mg/kg (21 mg/kg as free base), 20 days
Method: To induce pathology, HCT116 line cells were used. Cells in the amount of 200 μL (2.5×10^7 cells/mL) were subcutaneously injected to the right side of thymus-deprived female mice (SCID). […] To determine the efficacy of tumor growth inhibition upon completion of treatment (20 days), the average size ratio was calculated between the therapeutic/control groups (% T/C).

physchem = settings: deionized water, thermodynamic from solid, Equilibrium solubility, HPLC analysis
Bcr-Abl (F317I) = Bcr-Abl (F317I) (Homo sapiens, UniProt P00519, F317I, form not given); test: Bcr-Abl tyrosine kinase enzyme activity
Bcr-Abl (H396P) = Bcr-Abl (H396P) (Homo sapiens, UniProt P00519, H396P, form not given); test: Bcr-Abl tyrosine kinase enzyme activity
[6] = dose of the substance administered

For CS(=O)(=O)O.Cc1ccc(C(=O)Nc2ccc(CN3CCN(C)CC3)c(C(F)(F)F)c2)cc1C#Cc1nnc2ccccn12 [methanesulfonic acid salt, 3-(1,2,4-triazolo[4,3-a]pyridine-3-ylethynyl)-4-methyl-N-(4-((4-methylpiperazin-1-yl)methyl)-3-trifluoromethylphenyl)benzamide mono methanesulfonic acid salt], the “crystalline structure after suspending in acetone” value ([1]; acetone, 6 days) was “remained unchanged”, the “Crystallinity in 6 days” value ([1]; suspending in acetone for 6 days, room temperature) was “Cryst” and the Cmax (in vivo [2]) was 1100 ng/mL. For the same molecule, the LD50 at 28 days ([3]; calculated as a free base) was 1190 mg/kg, the LD50 at 28 days [3, 6] was 1400 mg/kg and the “signs of animal intoxication” value (CD-1 line mice males; mouse, in vivo, po) was “dyspnea, hypodynamia, tumbled fur, diarrhea, bloating, in some animals—focal alopecia”. The LD10 (CD-1 line mice males; calculated as a free base) was “(508*) mg/kg”, the LD90 (CD-1 line mice males; calculated as a free base) was “(1,864*) mg/kg” and the LD10 (CD-1 line mice males; [6]) was 600 mg/kg. For the same molecule, the LD90 (CD-1 line mice males; [6]) was 2,200 mg/kg, the inhibition at 0.1 µM (EPHA8) was > 50% and the inhibition at 0.1 µM (FLT4/VEGFR3) was > 50%. The inhibition at 0.1 µM (FYN) was > 50%, the inhibition at 0.1 µM (HCK) was > 50% and the inhibition at 0.1 µM (P38a/MAPK14) was > 50%. The inhibition at 0.1 µM (RIPK3) was > 50%, the IC50 (KCL-22) was 9 nM and the IC50 (BV-173) was 5 nM. For the same molecule, the IC50 (Tom-1) was 5 nM, the cytotoxicity (SKOV-3) was “showed cytotoxicity” and the “effect on the tumor size” value (K562 line cells; 25 mg/kg (21 as free base) per day) was “decrease of the tumor size to an immeasurable size with subsequent proliferation after the 35th day of follow-up”. For the same molecule, the “effect on the tumor size” value (K562 line cells; 40 mg/kg (34 as free base) per day) was “elimination of the tumor without relapse during all 240 days of follow-up in all mice”, the “increase of average lives compared to the control group” value [4] was “more than 25%” and the half-life (in vivo [5]; mouse, in vivo, read-out: half-life period (converted)) was ~3 h. The AUC (in vivo [5]; mouse, in vivo, oral, 5 mg/kg) was 372 ng·h/mL, the AUC (in vivo [5]; mouse, in vivo, oral, 50 mg/kg) was 12100 ng·h/mL and the maximum concentration (in vivo [5]; oral, 5 mg/kg) was 82 ng/mL. For the same molecule, the maximum concentration (in vivo [5]; oral, 50 mg/kg) was 1,099 ng/mL, the “period of absorption to maximum concentration” value (in vivo [5]; oral, 5 to 50 mg/kg) was 2 to 4 h and the “participation of the isoform in metabolism” value (from here on “participation of the isoform”) (CYP3A4) was “involves participation”. For the same molecule, the “participation of the isoform” value (CYP2C9) was “does not involve”, the “participation of the isoform” value (CYP2C19) was “does not involve” and the “participation of the isoform” value (CYP2D6) was “does not involve”. For the same molecule, the LD10 (mice; calculated as the free base) was 678 mg/kg, the LD10 (mice; dose of the salt) was 800 mg/kg and the genotoxic effects (Gene toxicity: Ames test) was “had no genotoxic effects”. The Equilibrium solubility (deionized water, HPLC analysis, listed as HAL-G-196-20) was >100 mg/mL, the pH (equilibrium solubility test in water) was 3.6 and the “Crystallinity in 24 h” value (solid in water, equilibrium solubility test) was “Dissolution”. For the same molecule, the “solubility relative to the free base” value (water) was 10,000 fold, the “T/C (average tumor size ratio therapeutic/control)” value (HCT116 line cells) was < 35% and the solubility thermodynamic (physchem) was > 100 mg/mL. For the same molecule, the IC50 (Bcr-Abl (F317I)) was 2 nM and the IC50 (Bcr-Abl (H396P)) was 1 nM.
